Values quoted from earlier work as cited in patent US6858744B2, “Dihydoxyhexanoic acid derivatives, their intermediates, and methods of making” (Pfizer Inc., priority 2002, dated 2005).

For O=C(O)C(F)(F)F [trifluoro-acetic acid], the pKa is given as 0.3.
